Laboratory results from patent US20200079793A1, “COMPOUNDS AND METHODS FOR MODULATING ADENOSINE A2B RECEPTOR AND ADENOSINE A2A RECEPTOR” (CORVUS PHARMACEUTICALS, INC., priority 2018, published 2020).

Key:
A1R = biological target: T1, A1R (Homo sapiens, UniProt P30542); test: Activity assay of adenosine receptor modulators, A1R cAMP (Table 1); type: cell-based
T1 sequence (P30542 1-326): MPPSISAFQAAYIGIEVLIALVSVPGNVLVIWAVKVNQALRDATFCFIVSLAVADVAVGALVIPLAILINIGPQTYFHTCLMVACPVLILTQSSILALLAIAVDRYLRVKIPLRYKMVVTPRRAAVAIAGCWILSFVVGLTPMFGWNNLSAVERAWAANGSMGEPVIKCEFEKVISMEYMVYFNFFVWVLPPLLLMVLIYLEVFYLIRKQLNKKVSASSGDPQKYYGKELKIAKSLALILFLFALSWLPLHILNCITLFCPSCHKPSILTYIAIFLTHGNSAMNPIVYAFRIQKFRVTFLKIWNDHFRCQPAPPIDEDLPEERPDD
Method: (§1) Compounds (e.g., adenosine receptor modulators) were tested for its biological activity. The assay results in Table 1 indicate (+ means >1 μM; ++ means 100 nM to 1 μM; +++ means <100 nM).

A3R = biological target: T2, A3R (Homo sapiens, UniProt P0DMS8); test: Activity assay of adenosine receptor modulators, A3R cAMP (Table 1); type: cell-based
T2 sequence (P0DMS8 1-318): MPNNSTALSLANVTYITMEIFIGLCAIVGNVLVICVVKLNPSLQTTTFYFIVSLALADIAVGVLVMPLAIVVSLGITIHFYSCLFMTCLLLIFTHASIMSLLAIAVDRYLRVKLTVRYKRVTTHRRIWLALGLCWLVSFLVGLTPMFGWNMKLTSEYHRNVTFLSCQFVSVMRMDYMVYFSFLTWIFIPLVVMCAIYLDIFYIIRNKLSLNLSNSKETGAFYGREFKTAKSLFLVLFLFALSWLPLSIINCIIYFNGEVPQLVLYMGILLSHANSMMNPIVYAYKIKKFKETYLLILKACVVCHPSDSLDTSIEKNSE
Method: as §1

Adenosine A2B Receptor = biological target: T3, Adenosine A2B Receptor (Homo sapiens, UniProt P29275); test: Activity assay of adenosine receptor modulators, Adenosine A2B Receptor (Table 1); type: biochemical; details: cAMP; read-out: A2BR cAMP IC50
T3 sequence (P29275 1-332): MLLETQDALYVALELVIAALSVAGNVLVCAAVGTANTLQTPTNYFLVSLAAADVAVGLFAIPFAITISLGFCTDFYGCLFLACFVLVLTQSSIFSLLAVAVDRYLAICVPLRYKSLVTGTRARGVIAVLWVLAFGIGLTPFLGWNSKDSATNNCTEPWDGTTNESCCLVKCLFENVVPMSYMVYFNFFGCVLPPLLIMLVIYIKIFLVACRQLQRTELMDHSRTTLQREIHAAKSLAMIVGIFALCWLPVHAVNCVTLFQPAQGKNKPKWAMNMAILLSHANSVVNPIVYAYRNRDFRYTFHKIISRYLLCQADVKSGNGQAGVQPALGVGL
Method: as §1

Adenosine A2A Receptor = Adenosine A2A Receptor (Homo sapiens, UniProt P29274); test: Activity assay of adenosine receptor modulators, Adenosine A2A Receptor (Table 1); type: biochemical; details: cAMP; read-out: A2AR cAMP IC50
Method: as §1

Sequence of Adenosine A2A Receptor (P29274 whole entry): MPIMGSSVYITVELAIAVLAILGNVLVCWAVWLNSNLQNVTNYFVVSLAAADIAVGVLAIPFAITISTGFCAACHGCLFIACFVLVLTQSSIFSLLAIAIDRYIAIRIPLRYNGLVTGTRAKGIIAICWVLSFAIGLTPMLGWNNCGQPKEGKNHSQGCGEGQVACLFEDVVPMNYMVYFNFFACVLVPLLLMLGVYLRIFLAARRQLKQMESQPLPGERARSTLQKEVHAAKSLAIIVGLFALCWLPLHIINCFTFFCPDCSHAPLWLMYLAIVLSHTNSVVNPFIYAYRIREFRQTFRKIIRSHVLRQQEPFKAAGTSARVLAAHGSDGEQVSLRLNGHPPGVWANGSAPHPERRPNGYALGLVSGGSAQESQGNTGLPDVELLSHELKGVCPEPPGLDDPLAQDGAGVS

IC50 (A1R) [nM] | IC50 (A3R) [nM] | IC50 (Adenosine A2B Receptor) [nM] | IC50 (Adenosine A2A Receptor) [nM] | Compound
> 1000 | > 1000 | < 100 | 100 to 1000 | Cc1nc2nc(N[C@@H](C)c3cncc(F)c3)nc(C(=O)N3CC[C@@H](O)C3)c2s1 [Example 7, (5-(((S)-1-(5-Fluoropyridin-3-yl)ethyl)amino)-2-methylthiazolo[4,5-d]pyrimidin-7-yl)((R)-3-hydroxypyrrolidin-1-yl)methanone]
> 1000 | 100 to 1000 | < 100 | 100 to 1000 | Cc1nc2nc(N[C@@H](C)c3ccccn3)nc(C(=O)N3CCCC3)c2s1 [Example 9, (S)-(2-Methyl-5-((1-(pyridin-2-yl)ethyl)amino)thiazolo[4,5-d]pyrimidin-7-yl)(pyrrolidin-1-yl)methanone]
100 to 1000 | > 1000 | < 100 | 100 to 1000 | Cc1nc2nc(N[C@@H](C)c3cncc(F)c3)nc(C(=O)NCC3CCOCC3)c2s1 [Example 11, (S)-5-((1-(5-Fluoropyridin-3-yl)ethyl)amino)-2-methyl-N-((tetrahydro-2H-pyran-4-yl)methyl)thiazolo[4,5-d]pyrimidine-7-carboxamide]
> 1000 | > 1000 | < 100 | > 1000 | Cc1nc2nc(N[C@@H](C)c3cccnc3)nc(C(=O)N3CC[C@@H](O)C3)c2s1 [Example 16, ((R)-3-Hydroxypyrrolidin-1-yl)(2-methyl-5-(((S)-1-(pyridin-3-yl)ethyl)amino)thiazolo[4,5-d]pyrimidin-7-yl)methanone]
> 1000 | > 1000 | < 100 | > 1000 | Cc1nc2nc(N[C@@H](C)c3ccccn3)nc(C(=O)N3CC[C@H](O)C3)c2s1 [Example 17, ((S)-3-Hydroxypyrrolidin-1-yl)(2-methyl-5-(((S)-1-(pyridin-2-yl)ethyl)amino)thiazolo[4,5-d]pyrimidin-7-yl)methanone]
> 1000 | > 1000 | < 100 | > 1000 | Cc1nc2nc(N[C@@H](C)c3cccnc3)nc(C(=O)N3CC[C@H](O)C3)c2s1 [Example 18, ((S)-3-Hydroxypyrrolidin-1-yl)(2-methyl-5-(((S)-1-(pyridin-3-yl)ethyl)amino)thiazolo[4,5-d]pyrimidin-7-yl)methanone]
> 1000 | > 1000 | < 100 | 100 to 1000 | COCCNC(=O)c1nc(N[C@@H](C)c2cncc(F)c2)nc2nc(C)sc12 [Example 25, (S)-5-((1-(5-Fluoropyridin-3-yl)ethyl)amino)-N-(2-methoxyethyl)-2-methylthiazolo[4,5-d]pyrimidine-7-carboxamide]
> 1000 | 100 to 1000 | < 100 | 100 to 1000 | CC(=O)N[C@H]1CCN(C(=O)c2nc(N[C@@H](C)c3cncc(F)c3)nc3nc(C)sc23)C1 [Example 29, N—((S)-1-(5-(((S)-1-(5-Fluoropyridin-3-yl)ethyl)amino)-2-methylthiazolo[4,5-d]pyrimidine-7-carbonyl)pyrrolidin-3-yl)acetamide]
> 1000 | > 1000 | 100 to 1000 | > 1000 | CC(=O)N[C@@H]1CCN(C(=O)c2nc(N[C@@H](C)c3cncc(F)c3)nc3nc(C)sc23)C1 [Example 30, N—((R)-1-(5-(((S)-1-(5-Fluoropyridin-3-yl)ethyl)amino)-2-methylthiazolo[4,5-d]pyrimidine-7-carbonyl)pyrrolidin-3-yl)acetamide]
> 1000 | > 1000 | < 100 | > 1000 | Cc1nc2nc(N[C@@H](C)c3cncc(F)c3)nc(C(=O)NCCc3ccc(S(N)(=O)=O)cc3)c2s1 [Example 31, (S)-5-((1-(5-Fluoropyridin-3-yl)ethyl)amino)-2-methyl-N-(4-sulfamoylphenethyl)thiazolo[4,5-d]pyrimidine-7-carboxamide]
> 1000 | > 1000 | < 100 | > 1000 | Cc1nc2nc(N[C@@H](C)c3cncc(F)c3)nc(C(=O)N3CC(C(N)=O)C3)c2s1 [Example 33, (S)-1-(5-((1-(5-Fluoropyridin-3-yl)ethyl)amino)-2-methylthiazolo[4,5-d]pyrimidine-7-carbonyl)azetidine-3-carboxamide]

Further lines, the compound ahead of its results:

Compound | IC50 (A1R) [nM] | IC50 (A3R) [nM] | IC50 (Adenosine A2B Receptor) [nM] | IC50 (Adenosine A2A Receptor) [nM]
Cc1nc2nc(N[C@@H](C)c3ccccn3)nc(C(=O)N3CCC3)c2s1 [Example 8, (S)-Azetidin-1-yl(2-methyl-5-((1-(pyridin-2-yl)ethyl)amino)thiazolo[4,5-d]pyrimidin-7-yl)methanone] | > 1000 | 100 to 1000 | < 100 | 100 to 1000
Cc1nc2nc(N[C@@H](C)c3cccnc3)nc(C(=O)NC[C@@H](C)O)c2s1 [Example 12, N—((R)-2-Hydroxypropyl)-2-methyl-5-(((S)-1-(pyridin-3-yl)ethyl)amino)thiazolo[4,5-d]pyrimidine-7-carboxamide] | > 1000 | > 1000 | < 100 | > 1000
Cc1nc2nc(N[C@@H](C)c3cncc(F)c3)nc(C(=O)NC[C@@H]3CCOC3)c2s1 [Example 13, 5-(((S)-1-(5-Fluoropyridin-3-yl)ethyl)amino)-2-methyl-N—(((S)-tetrahydrofuran-3-yl)methyl)thiazolo[4,5-d]pyrimidine-7-carboxamide] | 100 to 1000 | 100 to 1000 | < 100 | 100 to 1000
Cc1nc2nc(N[C@@H](C)c3cncc(F)c3)nc(C(=O)NC[C@H]3CCOC3)c2s1 [Example 14, 5-(((S)-1-(5-Fluoropyridin-3-yl)ethyl)amino)-2-methyl-N—(((R)-tetrahydrofuran-3-yl)methyl)thiazolo[4,5-d]pyrimidine-7-carboxamide] | 100 to 1000 | > 1000 | < 100 | > 1000
Cc1nc2nc(N[C@@H](C)c3cccnc3)nc(C(=O)NC[C@H](C)O)c2s1 [Example 15, N—((S)-2-Hydroxypropyl)-2-methyl-5-(((S)-1-(pyridin-3-yl)ethyl)amino)thiazolo[4,5-d]pyrimidine-7-carboxamide] | > 1000 | > 1000 | < 100 | > 1000
Cc1nc2nc(N[C@@H](C)c3cncc(F)c3)nc(C(=O)NCCc3ccc(O)cc3)c2s1 [Example 21, (S)-5-((1-(5-Fluoropyridin-3-yl)ethyl)amino)-N-(4-hydroxyphenethyl)-2-methylthiazolo[4,5-d]pyrimidine-7-carboxamide] | > 1000 | > 1000 | < 100 | > 1000
CC(=O)Nc1ccc(CCNC(=O)c2nc(N[C@@H](C)c3cncc(F)c3)nc3nc(C)sc23)cc1 [Example 24, (S)—N-(4-Acetamidophenethyl)-5-((1-(5-fluoropyridin-3-yl)ethyl)amino)-2-methylthiazolo[4,5-d]pyrimidine-7-carboxamide] | > 1000 | > 1000 | < 100 | > 1000
CC(=O)NC1CN(C(=O)c2nc(N[C@@H](C)c3cncc(F)c3)nc3nc(C)sc23)C1 [Example 28, (S)—N-(1-(5-((1-(5-Fluoropyridin-3-yl)ethyl)amino)-2-methylthiazolo[4,5-d]pyrimidine-7-carbonyl)azetidin-3-yl)acetamide] | > 1000 | > 1000 | < 100 | 100 to 1000
Cc1nc2nc(N[C@@H](C)c3cncc(F)c3)nc(C(=O)NCCC3CCNCC3)c2s1 [Example 32, (S)-5-((1-(5-Fluoropyridin-3-yl)ethyl)amino)-2-methyl-N-(2-(piperidin-4-yl)ethyl)thiazolo[4,5-d]pyrimidine-7-carboxamide] | > 1000 | > 1000 | < 100 | > 1000
Cc1nc2nc(N[C@@H](C)c3cncc(F)c3)nc(C(=O)N3CC(NC(=O)C(C)(C)C)C3)c2s1 [Example 37, (S)—N-(1-(5-((1-(5-Fluoropyridin-3-yl)ethyl)amino)-2-methylthiazolo[4,5-d]pyrimidine-7-carbonyl)azetidin-3-yl)pivalamide] | > 1000 | < 100 | < 100 | < 100
